Source: the RepoRT retention time repository (doi:10.1016/j.scitotenv.2015.08.078)
Counter-ions that a name gives are not always drawn.

Assay: RP, Waters ACQUITY UPLC BEH C18, 100 × 2.1 mm, 1.7 µm, 0.3 mL/min, estimated dead time 0.73 min; A: water + 0.1% formic acid, pH 3; B: methanol + 0.1% formic acid, pH 3; gradient (min/%B) 0/10 14/90 16/90 18/10
Details: stereoisomer not certain

Q: With CCOP(=S)(Oc1ccc(C#N)cc1)c1ccccc1 (stereo not drawn) [Cyanofenphos] as the compound, how does the LC retention time read?
A: The LC retention time was 11.7 min.

Q: With CC(Cc1ccc(C(C)(C)C)cc1)CN1CCCCC1 (stereo not drawn) [Fenpropidin] as the compound, how does the LC retention time read?
A: Its LC retention time is 10 min.

Q: Which LC retention time does the source give for C=CC1(C)CC(OC(=O)CSCCN(CC)CC)C2(C)C(C)CCC3(CCC(=O)C32)C(C)C1O (stereo not drawn) [Tiamulin] here?
A: Its LC retention time is 9.22 min.

Q: Which LC retention time does the source give for Clc1ccc(C2(Cn3cncn3)CC(Br)CO2)c(Cl)c1 (stereo not drawn) [Bromuconazole I] here?
A: Its LC retention time is 10.6 min.

Q: For CNC(=O)Oc1cc(C)c(SC)c(C)c1 [Methiocarb], which LC retention time is on record?
A: The LC retention time was 8.89 min.

Q: With CC1=C(C(=O)Nc2ccccc2)S(=O)(=O)CCO1 [Oxycarboxin] as the compound, how does the LC retention time read?
A: Its LC retention time is 5.41 min.

Q: For CC(C)(C)NCC(O)c1cc(Cl)c(N)c(C(F)(F)F)c1 (stereo not drawn) [Mabuterol], which LC retention time is on record?
A: Its LC retention time is 6.05 min.

Q: For COP(=S)(OC)Oc1ccc([N+](=O)[O-])cc1 [Parathion-methyl], which LC retention time is on record?
A: Its LC retention time is 9.6 min.

Q: For CON(C)C(=O)Nc1ccc(Br)c(Cl)c1 [Chlorbromuron], which LC retention time is on record?
A: The LC retention time was 10.1 min.

Q: With CCc1cccc(C)c1N(C(=O)CCl)C(C)COC (stereo not drawn) [Metolachlor] as the compound, how does the LC retention time read?
A: Its LC retention time is 11.7 min.

Q: Which LC retention time does the source give for CCCN(CCC)c1c([N+](=O)[O-])cc(S(N)(=O)=O)cc1[N+](=O)[O-] [Oryzalin] here?
A: The LC retention time was 11.1 min.

Q: With CCOC(=O)C(C)Oc1ccc(Oc2nc3ccc(Cl)cc3o2)cc1 (stereo not drawn) [Fenoxaprop-ethyl] as the compound, how does the LC retention time read?
A: The LC retention time was 12.7 min.

Q: For CCOC(=O)c1ccccc1S(=O)(=O)NC(=O)Nc1nc(Cl)cc(OC)n1 [Chlorimuron ethyl], which LC retention time is on record?
A: The LC retention time was 8.65 min.

Q: Which LC retention time does the source give for Cc1cc(C)nc(NS(=O)(=O)c2ccc(N)cc2)n1 [Sulfamethazine] here?
A: The LC retention time was 3.59 min.

Q: Which LC retention time does the source give for COC(=O)C(C)Oc1ccc(Oc2cnc3cc(Cl)ccc3n2)cc1 (stereo not drawn) [Quizalofop methyl] here?
A: Its LC retention time is 12.1 min.

Q: With Nc1ccc(S(=O)(=O)Nc2ccccn2)cc1 [Sulfapyridine] as the compound, how does the LC retention time read?
A: The LC retention time was 2.55 min.

Q: Which LC retention time does the source give for CCOP(=S)(Oc1ccc([N+](=O)[O-])cc1)c1ccccc1 (stereo not drawn) [EPN] here?
A: Its LC retention time is 12.2 min.

Q: With Cn1c([N+](=O)[O-])cnc1C(C)(C)O [Hydroxyipronidazole (IPZOH)] as the compound, how does the LC retention time read?
A: Its LC retention time is 4.6 min.

Q: With CC1(C(=O)Nc2ccc(O)c(Cl)c2Cl)CCCCC1 [Fenhexamid] as the compound, how does the LC retention time read?
A: The LC retention time was 11.5 min.

Q: With CC1COc2ccccc2N1C(=O)C(Cl)Cl (stereo not drawn) [Benoxacor] as the compound, how does the LC retention time read?
A: Its LC retention time is 9.47 min.

Q: With Cc1cc(NS(=O)(=O)c2ccc(N)cc2)no1 [Sulfamethoxazole] as the compound, how does the LC retention time read?
A: Its LC retention time is 3.91 min.

Q: For O=[N+]([O-])/N=C1\NCCN1Cc1ccc(Cl)nc1 [Imidacloprid], which LC retention time is on record?
A: Its LC retention time is 4.63 min.

Q: Which LC retention time does the source give for CCC(C)(C)C(=O)OC1CC(C)C=C2C=CC(C)C(CCC3CC(O)CC(=O)O3)C21 (stereo not drawn) [Simvastatin] here?
A: Its LC retention time is 14.2 min.

Q: With COc1cc(OC)c(C(=O)CCCN2CCCC2)c(OC)c1 [Buflomedil HCl] as the compound, how does the LC retention time read?
A: Its LC retention time is 5 min.

Q: Which LC retention time does the source give for CN(CC=CC#CC(C)(C)C)Cc1cccc2ccccc12 [Terbinafine] here?
A: The LC retention time was 13.7 min.

Q: For CNC(=O)Oc1ccccc1OC(C)C [Propoxur], which LC retention time is on record?
A: The LC retention time was 7.36 min.

Q: Which LC retention time does the source give for CNC1(c2ccccc2Cl)CCCCC1=O (stereo not drawn) [Ketamine] here?
A: Its LC retention time is 4.88 min.

Q: For CN1CCC23c4c5ccc(O)c4OC2C(O)C=CC3C1C5 (stereo not drawn) [Morphine], which LC retention time is on record?
A: Its LC retention time is 2.86 min.

Q: Which LC retention time does the source give for Cc1nnc(NS(=O)(=O)c2ccc(N)cc2)s1 [Sulfamethiazole] here?
A: Its LC retention time is 3.19 min.

Q: For COCC(=O)N(c1c(C)cccc1C)N1CCOC1=O [Oxadixyl], which LC retention time is on record?
A: The LC retention time was 6.71 min.

Q: Which LC retention time does the source give for COC(=O)C1C2CC3c4[nH]c5cc(OC)ccc5c4CCN3CC2CC(OC(=O)c2cc(OC)c(OC)c(OC)c2)C1OC (stereo not drawn) [Reserpine] here?
A: The LC retention time was 8.76 min.

Q: For CC(C)(C)NCC(O)c1ccc(O)c(CO)c1 (stereo not drawn) [Salbutamol], which LC retention time is on record?
A: Its LC retention time is 2.03 min.

Q: Which LC retention time does the source give for CCCOC(=O)c1ccccc1C(=O)OCCC [Dipropyl phthalate] here?
A: Its LC retention time is 11.1 min.

Q: Which LC retention time does the source give for O=C(Nc1ccc(F)cc1F)c1cccnc1Oc1cccc(C(F)(F)F)c1 [Diflufenican] here?
A: The LC retention time was 12.7 min.

Q: Which LC retention time does the source give for CC1c2cccc(O)c2C(O)=C2C(=O)C3(O)C(O)=C(C(N)=O)C(=O)C(N(C)C)C3C(O)C21 (stereo not drawn) [Doxycycline] here?
A: Its LC retention time is 7.42 min.

Q: With Cc1c(Cl)cccc1Nc1ccccc1C(=O)O [Tolfenamic acid] as the compound, how does the LC retention time read?
A: Its LC retention time is 11 min.

Q: With CCC(C)C1OC2(C=CC1C)CC1CC(CC=C(C)C(OC3CC(OC)C(OC4CC(OC)C(NC(C)=O)C(C)O4)C(C)O3)C(C)C=CC=C3COC4C(O)C(C)=CC(C(=O)O1)C34O)O2 (stereo not drawn) [Eprinomectin] as the compound, how does the LC retention time read?
A: The LC retention time was 15.1 min.

Q: Which LC retention time does the source give for O=c1c2cc(F)ccc2nc(-n2cncn2)n1-c1ccc(Cl)cc1Cl [Fluquinconazole] here?
A: Its LC retention time is 10.7 min.

Q: With CCOC(=O)C1CC(=O)C(=C(O)C2CC2)C(=O)C1 (stereo not drawn) [Trinexapac-ethyl] as the compound, how does the LC retention time read?
A: Its LC retention time is 7.6 min.

Q: With CC#Cc1cc(C)nc(Nc2ccccc2)n1 [Mepanipyrim] as the compound, how does the LC retention time read?
A: Its LC retention time is 10.7 min.

Q: With CC(=O)Nc1ccc(S(=O)(=O)Nc2ccc([N+](=O)[O-])cc2)cc1 [Sulfanitran] as the compound, how does the LC retention time read?
A: The LC retention time was 7.27 min.

Q: Which LC retention time does the source give for COC(=O)Nc1nc2ccc(S(=O)c3ccccc3)cc2[nH]1 (stereo not drawn) [Oxfendazole] here?
A: The LC retention time was 7.31 min.

Q: Which LC retention time does the source give for CCCOP(=S)(OCCC)SCC(=O)N1CCCCC1C (stereo not drawn) [Piperophos] here?
A: The LC retention time was 12.3 min.
